What was measured:
Assay in all cases: biochemical
Set-up in all cases: KINOMEscan active-site-directed competition binding panel, 468 kinases, percent of DMSO control at 1 uM
Details in all cases: KINOMEscan binding, percent of DMSO control; read-out: Ctrl%
ACVR1B = ACVR1B (Homo sapiens, UniProt P36896)
ALK = ALK (Homo sapiens, UniProt Q9UM73)
BMPR1A = BMPR1A (Homo sapiens, UniProt P36894)
CHEK2 = CHEK2 (Homo sapiens, UniProt O96017)
CSNK1A1L = CSNK1A1L (Homo sapiens, UniProt Q8N752)
FGFR1 = FGFR1 (Homo sapiens, UniProt P11362)
HIPK4 = HIPK4 (Homo sapiens, UniProt Q8NE63)
ICK = molecular target: T1, ICK (Homo sapiens, UniProt Q9UPZ9)
T1 construct: gene CILK1

KIT(D816V) = KIT(D816V) (Homo sapiens, UniProt P10721, D816V)
LATS2 = LATS2 (Homo sapiens, UniProt Q9NRM7)
MLK1 = molecular target: T2, MLK1 (Homo sapiens, UniProt P80192)
T2 construct: gene MAP3K9

OSR1 = molecular target: T3, OSR1 (Homo sapiens, UniProt O95747)
T3 construct: gene OXSR1
T3 sequence (O95747 whole entry): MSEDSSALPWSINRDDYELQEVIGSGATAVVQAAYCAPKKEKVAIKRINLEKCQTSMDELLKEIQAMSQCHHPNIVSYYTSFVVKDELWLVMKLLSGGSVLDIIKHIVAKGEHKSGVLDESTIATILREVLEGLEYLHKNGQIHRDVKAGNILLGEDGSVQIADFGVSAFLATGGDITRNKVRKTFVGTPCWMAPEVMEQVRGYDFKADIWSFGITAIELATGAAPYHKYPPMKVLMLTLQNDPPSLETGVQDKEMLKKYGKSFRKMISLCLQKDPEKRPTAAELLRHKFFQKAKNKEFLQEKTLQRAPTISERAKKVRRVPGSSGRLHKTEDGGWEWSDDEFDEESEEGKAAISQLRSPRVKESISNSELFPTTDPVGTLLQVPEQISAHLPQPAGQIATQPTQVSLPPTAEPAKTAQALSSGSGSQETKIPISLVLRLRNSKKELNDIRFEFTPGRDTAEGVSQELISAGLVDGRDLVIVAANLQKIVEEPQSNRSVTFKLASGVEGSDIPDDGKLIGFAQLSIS

PAK1 = PAK1 (Homo sapiens, UniProt Q13153)
PAK7 = molecular target: T4, PAK7 (Homo sapiens, UniProt Q9P286)
T4 construct: gene PAK5

PIK3C2G = PIK3C2G (Homo sapiens, UniProt O75747)
PIK4CB = molecular target: T5, PIK4CB (Homo sapiens, UniProt Q9UBF8)
T5 construct: gene PI4KB

PKAC-alpha = molecular target: T6, PKAC-alpha (Homo sapiens, UniProt P17612)
T6 construct: gene PRKACA

PRKX = PRKX (Homo sapiens, UniProt P51817)
Sequence of PRKX (P51817 whole entry): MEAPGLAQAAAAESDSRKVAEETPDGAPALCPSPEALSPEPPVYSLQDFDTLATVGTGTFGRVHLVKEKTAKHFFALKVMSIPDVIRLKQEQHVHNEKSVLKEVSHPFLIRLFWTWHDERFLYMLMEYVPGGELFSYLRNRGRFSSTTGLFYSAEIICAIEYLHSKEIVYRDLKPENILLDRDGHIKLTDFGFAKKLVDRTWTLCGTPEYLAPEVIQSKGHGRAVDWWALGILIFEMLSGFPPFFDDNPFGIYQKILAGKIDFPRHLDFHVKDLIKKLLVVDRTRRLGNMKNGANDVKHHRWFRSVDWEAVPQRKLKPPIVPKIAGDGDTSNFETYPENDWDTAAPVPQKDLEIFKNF

RIPK1 = RIPK1 (Homo sapiens, UniProt Q13546)
ROCK1 = ROCK1 (Homo sapiens, UniProt Q13464)
Sequence of ROCK1 (Q13464 whole entry): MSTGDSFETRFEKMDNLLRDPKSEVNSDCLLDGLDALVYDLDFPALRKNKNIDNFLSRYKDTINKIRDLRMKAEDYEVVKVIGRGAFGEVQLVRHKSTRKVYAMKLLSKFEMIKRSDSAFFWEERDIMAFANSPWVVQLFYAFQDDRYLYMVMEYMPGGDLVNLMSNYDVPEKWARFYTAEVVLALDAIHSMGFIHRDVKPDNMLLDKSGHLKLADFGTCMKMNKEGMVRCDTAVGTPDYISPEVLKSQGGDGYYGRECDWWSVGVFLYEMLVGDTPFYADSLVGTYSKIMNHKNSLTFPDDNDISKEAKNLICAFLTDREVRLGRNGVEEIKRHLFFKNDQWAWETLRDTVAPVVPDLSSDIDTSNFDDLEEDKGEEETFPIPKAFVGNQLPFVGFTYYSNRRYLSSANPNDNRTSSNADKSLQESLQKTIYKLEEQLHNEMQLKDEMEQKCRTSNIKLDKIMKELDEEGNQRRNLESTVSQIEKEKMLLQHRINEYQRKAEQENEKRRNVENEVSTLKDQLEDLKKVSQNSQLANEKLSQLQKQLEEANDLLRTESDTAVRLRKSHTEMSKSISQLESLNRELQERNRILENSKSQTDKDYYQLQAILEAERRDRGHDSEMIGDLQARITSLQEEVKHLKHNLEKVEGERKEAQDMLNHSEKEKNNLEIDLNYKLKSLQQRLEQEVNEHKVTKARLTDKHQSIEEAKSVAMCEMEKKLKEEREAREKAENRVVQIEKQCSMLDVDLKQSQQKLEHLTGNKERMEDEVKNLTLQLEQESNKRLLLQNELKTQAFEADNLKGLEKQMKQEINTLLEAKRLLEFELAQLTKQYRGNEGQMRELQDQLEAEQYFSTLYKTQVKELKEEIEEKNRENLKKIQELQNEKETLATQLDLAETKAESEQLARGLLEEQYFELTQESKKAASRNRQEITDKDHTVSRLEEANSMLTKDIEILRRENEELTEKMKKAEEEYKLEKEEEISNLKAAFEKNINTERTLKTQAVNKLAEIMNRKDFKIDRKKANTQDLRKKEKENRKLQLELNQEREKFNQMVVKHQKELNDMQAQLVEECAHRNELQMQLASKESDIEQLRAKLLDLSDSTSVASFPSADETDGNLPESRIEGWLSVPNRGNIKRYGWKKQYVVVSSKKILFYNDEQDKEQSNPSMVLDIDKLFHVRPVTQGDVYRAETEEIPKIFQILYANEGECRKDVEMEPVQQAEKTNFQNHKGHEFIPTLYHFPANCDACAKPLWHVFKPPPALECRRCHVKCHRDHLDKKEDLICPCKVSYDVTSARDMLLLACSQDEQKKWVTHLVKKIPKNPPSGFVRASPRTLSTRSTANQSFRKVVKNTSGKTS

STK16 = STK16 (Homo sapiens, UniProt O75716)
Sequence of STK16 (O75716 whole entry): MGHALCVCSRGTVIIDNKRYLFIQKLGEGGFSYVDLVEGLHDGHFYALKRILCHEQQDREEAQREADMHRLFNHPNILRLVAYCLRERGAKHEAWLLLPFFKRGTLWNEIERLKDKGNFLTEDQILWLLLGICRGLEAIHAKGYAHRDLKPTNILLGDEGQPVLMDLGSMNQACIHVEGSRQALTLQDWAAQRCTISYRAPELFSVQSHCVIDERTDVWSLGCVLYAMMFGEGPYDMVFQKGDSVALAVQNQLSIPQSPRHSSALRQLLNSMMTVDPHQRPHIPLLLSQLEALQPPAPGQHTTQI

TSSK1B = TSSK1B (Homo sapiens, UniProt Q9BXA7)
Sequence of TSSK1B (Q9BXA7 whole entry): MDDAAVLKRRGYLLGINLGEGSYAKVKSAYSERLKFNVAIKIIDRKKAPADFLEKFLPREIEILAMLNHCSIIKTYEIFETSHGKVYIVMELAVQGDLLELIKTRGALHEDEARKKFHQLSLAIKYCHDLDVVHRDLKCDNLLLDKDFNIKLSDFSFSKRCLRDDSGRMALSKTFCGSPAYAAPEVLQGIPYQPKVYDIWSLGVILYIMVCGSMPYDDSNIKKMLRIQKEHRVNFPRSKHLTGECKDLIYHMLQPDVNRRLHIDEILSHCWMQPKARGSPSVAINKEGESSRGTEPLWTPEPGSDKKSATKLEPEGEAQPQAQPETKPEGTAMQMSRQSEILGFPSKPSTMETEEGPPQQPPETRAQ

TYRO3 = TYRO3 (Homo sapiens, UniProt Q06418)
WNK2 = WNK2 (Homo sapiens, UniProt Q9Y3S1)

Sequence of BMPR1A (P36894 whole entry): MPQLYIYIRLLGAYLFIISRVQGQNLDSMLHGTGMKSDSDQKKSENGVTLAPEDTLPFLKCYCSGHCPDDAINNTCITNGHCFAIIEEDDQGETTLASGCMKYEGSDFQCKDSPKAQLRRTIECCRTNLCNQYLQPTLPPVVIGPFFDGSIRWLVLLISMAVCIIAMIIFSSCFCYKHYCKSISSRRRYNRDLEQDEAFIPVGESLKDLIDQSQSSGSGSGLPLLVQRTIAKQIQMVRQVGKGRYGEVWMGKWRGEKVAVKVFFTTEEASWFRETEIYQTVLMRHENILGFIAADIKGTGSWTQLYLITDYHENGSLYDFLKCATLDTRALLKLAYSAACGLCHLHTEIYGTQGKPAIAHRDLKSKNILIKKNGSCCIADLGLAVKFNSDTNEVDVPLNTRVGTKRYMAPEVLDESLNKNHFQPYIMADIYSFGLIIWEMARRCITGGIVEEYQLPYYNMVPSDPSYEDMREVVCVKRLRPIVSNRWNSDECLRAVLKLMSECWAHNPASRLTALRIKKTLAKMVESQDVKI
Sequence of ALK (Q9UM73 whole entry): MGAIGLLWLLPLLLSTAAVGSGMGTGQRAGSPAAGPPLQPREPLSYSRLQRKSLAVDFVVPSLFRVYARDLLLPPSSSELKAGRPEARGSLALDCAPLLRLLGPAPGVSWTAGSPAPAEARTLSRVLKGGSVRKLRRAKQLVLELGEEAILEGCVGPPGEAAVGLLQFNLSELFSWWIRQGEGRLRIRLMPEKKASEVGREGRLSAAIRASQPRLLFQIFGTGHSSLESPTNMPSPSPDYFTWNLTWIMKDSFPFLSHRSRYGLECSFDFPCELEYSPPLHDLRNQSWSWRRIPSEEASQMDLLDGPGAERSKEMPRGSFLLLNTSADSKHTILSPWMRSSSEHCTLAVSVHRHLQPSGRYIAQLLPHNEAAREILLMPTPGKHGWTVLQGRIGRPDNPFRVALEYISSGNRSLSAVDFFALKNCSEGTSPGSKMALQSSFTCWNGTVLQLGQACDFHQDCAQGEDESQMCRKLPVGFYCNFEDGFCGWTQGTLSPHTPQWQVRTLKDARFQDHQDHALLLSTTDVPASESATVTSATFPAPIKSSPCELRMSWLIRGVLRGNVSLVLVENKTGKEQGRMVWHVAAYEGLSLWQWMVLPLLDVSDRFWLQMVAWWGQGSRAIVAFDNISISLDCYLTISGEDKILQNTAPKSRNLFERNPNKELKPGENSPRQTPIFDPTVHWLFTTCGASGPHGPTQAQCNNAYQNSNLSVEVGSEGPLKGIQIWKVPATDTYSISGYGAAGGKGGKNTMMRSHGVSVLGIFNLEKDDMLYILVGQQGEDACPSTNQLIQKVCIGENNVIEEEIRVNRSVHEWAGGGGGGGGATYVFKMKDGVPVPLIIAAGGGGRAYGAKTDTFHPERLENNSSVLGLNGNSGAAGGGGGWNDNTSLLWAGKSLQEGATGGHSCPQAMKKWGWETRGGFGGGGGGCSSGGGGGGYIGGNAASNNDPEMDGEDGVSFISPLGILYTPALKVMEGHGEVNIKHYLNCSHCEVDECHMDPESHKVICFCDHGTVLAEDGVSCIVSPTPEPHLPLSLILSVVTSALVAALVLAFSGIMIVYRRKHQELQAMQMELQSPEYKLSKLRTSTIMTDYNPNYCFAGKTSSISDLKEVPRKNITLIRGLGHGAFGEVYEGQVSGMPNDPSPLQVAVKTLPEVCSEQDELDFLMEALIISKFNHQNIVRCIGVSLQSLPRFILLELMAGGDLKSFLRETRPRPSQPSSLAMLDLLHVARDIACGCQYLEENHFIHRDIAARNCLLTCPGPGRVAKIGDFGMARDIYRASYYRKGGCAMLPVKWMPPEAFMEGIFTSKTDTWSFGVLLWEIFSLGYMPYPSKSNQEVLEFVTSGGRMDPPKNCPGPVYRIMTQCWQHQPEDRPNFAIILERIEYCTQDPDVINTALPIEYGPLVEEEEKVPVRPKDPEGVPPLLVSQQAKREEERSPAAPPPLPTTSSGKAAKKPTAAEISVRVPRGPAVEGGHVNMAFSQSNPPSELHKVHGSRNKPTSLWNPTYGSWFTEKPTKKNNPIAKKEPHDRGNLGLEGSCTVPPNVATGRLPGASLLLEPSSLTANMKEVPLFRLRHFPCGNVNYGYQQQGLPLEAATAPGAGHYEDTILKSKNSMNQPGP

## Cc1ccc(NC(=O)c2cccc(C(F)(F)F)c2)cc1Nc1cc(-c2cccnc2)nc2[nH]ccc12 [HZX-02-059]
ACVR1B
  remaining binding at 1 µM: 72%
ALK
  remaining binding at 1 µM: 100%
BMPR1A
  remaining binding at 1 µM: 69%
CHEK2
  remaining binding at 1 µM: 61%
CSNK1A1L
  remaining binding at 1 µM: 92%
FGFR1
  remaining binding at 1 µM: 93%
HIPK4
  remaining binding at 1 µM: 86%
ICK
  remaining binding at 1 µM: 77%
KIT(D816V)
  remaining binding at 1 µM: 93%
LATS2
  remaining binding at 1 µM: 67%
MLK1
  remaining binding at 1 µM: 100%
OSR1
  remaining binding at 1 µM: 97%
PAK1
  remaining binding at 1 µM: 94%
PAK7
  remaining binding at 1 µM: 65%
PIK3C2G
  remaining binding at 1 µM: 86%
PIK4CB
  remaining binding at 1 µM: 78%
PKAC-alpha
  remaining binding at 1 µM: 94%
PRKX
  remaining binding at 1 µM: 100%
RIPK1
  remaining binding at 1 µM: 100%
ROCK1
  remaining binding at 1 µM: 100%
STK16
  remaining binding at 1 µM: 96%
TSSK1B
  remaining binding at 1 µM: 100%
TYRO3
  remaining binding at 1 µM: 100%
WNK2
  remaining binding at 1 µM: 100%
